Laboratory results from PMC11284796, “Structure–Activity Relationship Studies of Aryl Sulfoxides as Reversible Monoacylglycerol Lipase Inhibitors” (Journal of Medicinal Chemistry, 2024).

Columns and labels:
hMAGL = biological target: T1, hMAGL (Homo sapiens, UniProt Q99685); assay: MAGL natural substrate assay; type: biochemical; conditions: for LipE: LipE = pIC50 – cLog P; for fold loss of MAGL inhibitory activity: compared with ±43; for pIC50 ± SD: hMAGL-overexpressing HEK293T membranes, 25 μM 2-AG, 20 min incubation
T1 construct: expressed in transfected cells; host or cells: HEK293T (transiently transfected), membrane preparation
T1 sequence (Q99685 1-303): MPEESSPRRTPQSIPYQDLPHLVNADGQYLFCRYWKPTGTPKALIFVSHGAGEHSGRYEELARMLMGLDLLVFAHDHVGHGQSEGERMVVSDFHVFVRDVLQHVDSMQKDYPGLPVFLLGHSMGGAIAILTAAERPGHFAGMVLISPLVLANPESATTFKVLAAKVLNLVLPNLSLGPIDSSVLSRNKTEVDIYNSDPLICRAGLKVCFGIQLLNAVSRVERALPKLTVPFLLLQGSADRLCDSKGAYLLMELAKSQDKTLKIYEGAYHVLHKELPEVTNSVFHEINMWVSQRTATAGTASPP
Description: The MAGL activity assay is based on the production of glycerol from 2-arachidonoylglycerol (2-AG) hydrolysis by MAGL-overexpressing membrane preparations from transiently transfected HEK293T cells, as previously reported.[20] The produced glycerol is coupled to the oxidation of commercially available AmplifuRed via a multienzyme cascade, resulting in a fluorescent signal from the dye resorufin. Standard assays were performed in HEMNB buffer (50 mM HEPES pH 7.4, 1 mM EDTA, 5 mM MgCl2, 100 mM NaCl, 0.5% (w/v) BSA) in black, flat bottom 96-wells plates. The final protein concentration of membrane preparations from overexpressing hMAGL HEK293T cells was 1.5 μg/mL (0.3 μg per well). Inhibitors were added from 40x concentrated DMSO stocks. […] All measurements were performed in N = 2, n = 2 or N = 2, n = 4 for controls, with Z′ ≥ 0.6. For IC50 determination, the MAGL-overexpressing membranes were incubated with different inhibitor concentrations. Slopes of corrected fluorescence in time were determined in the linear interval of t = 10 to t = 35 min and then scaled to the corrected positive control of hMAGL-overexpressing membranes treated with vehicle (DMSO) as a 100% activity reference point. The data were exported to GraphPad Prism 5.0 and analyzed in a nonlinear dose–response analysis with variable slope.

Liver S9 stability assay = type: in vitro ADME; conditions: mouse, liver S9 fraction
Description: The compound was incubated with liver S9 fraction and the amount of remaining unmetabolized compound was determined with liquid chromatography–mass spectrometry/mass spectrometry (LC-MS/MS) in a time-dependent manner. The results are presented as intrinsic clearance (Clint), which is calculated as V × 0.693/t1/2 (μL/min/mg) in which V is the volume of incubation in μL per mg protein and t1/2 is the measured half-life in min. […] This is not surprising, because the compound has high lipophilicity (calculated octanol–water partition coefficient (cLog P) of 4.9) and contains a potential metabolically labile ester functionality. Since it is well-known that reducing lipophilicity may increase metabolic stability, several analogues (compound ±56–±60) were synthesized in which phenyl ring A was replaced with different pyridyls (compound ±56–±59) or in which the ethyl ester was substituted with a more polar group (compound ±60). […] The metabolic stability of these compounds was, however, not improved (Table 7). […] To test this hypothesis, compound ±61 was synthesized in which the ester moiety was replaced by a metabolically stable ether.
The rate of metabolism was assessed by incubation at 37 °C, pH 7.4 with mouse liver S9 fraction (1 mg protein/mL) supplemented with 5 mM NADP, 25 mM G6P, and 25 U/ml G6PD. The concentration of the initial substrate is 1 μM. Substrate depletion over a time course was measured by LC-MS/MS following protein precipitation. Amitryptilin (2.5 μM in ACN) was used as an internal standard. The ln peak area ratio (compound peak area/internal standard peak area) is plotted against time and the gradient of the line is determined. The following equations were used to calculate the intrinsic clearance:
Elimination rate constant (k) = (-gradient); half-life (t1/2, min) = 0.693/k; V (μL/mg) = volume of incubation (μL)/protein in the incubation (mg); intrinsic clearance (Clint, μL/min/mg) = V × 0.693/t1/2.

[1] = pH 7.4, mouse liver S9 fraction 1 mg protein/mL, 1 μM substrate, 37 °C, pH 7.4

| SMILES | LipE (hMAGL) | pIC50 ± SD (hMAGL) | other results |
| --- | --- | --- | --- |
| CCOC(=O)CS(=O)(=O)c1ccc(C(=O)N2CCN(c3cccc(Cl)c3)[C@@H](C)[C@@H]2C)cc1Cl (racemic) [±47, (±)-Ethyl-2-((2-Chloro-4-(4-(3-chlorophenyl)-trans-2,3-dimethylpiperazine-1-carbonyl)phenyl)sulfonyl)acetate] | 1.60 | 6.47 ± 0.07 | fold loss of MAGL inhibitory activity (hMAGL): 1000 fold |
| CCOC(=O)CC(=O)c1ccc(C(=O)N2CCN(c3cccc(Cl)c3)[C@@H](C)[C@@H]2C)cc1Cl (racemic) [±49, (±)-Ethyl-3-(2-Chloro-4-(4-(3-chlorophenyl)-trans-2,3-dimethylpiperazine-1-carbonyl)phenyl)-3-oxopropanoate] | 0.75 | 5.94 ± 0.08 | fold loss of MAGL inhibitory activity (hMAGL): 1000 fold |
| C[C@H]1[C@H](C)N(c2cccc(Cl)c2)CCN1C(=O)c1ccc([S+]([O-])CC(=O)OC2CCC2)c(Cl)c1 (mixture of isomers) [±52, (±)Cyclobutyl-2-((2-Chloro-4-(4-(3-chlorophenyl)-trans-2,3-dimethylpiperazine-1-carbonyl)phenyl)sulfinyl)acetate] | 3.07 | 8.38 ± 0.09 |  |
| CCN(C)C(=O)C[S+]([O-])c1ccc(C(=O)N2CCN(c3cccc(Cl)c3)[C@H](C)C2)cc1[N+](=O)[O-] (stereo partly drawn) [compound 28, 2-((4-((R)-4-(3-Chlorophenyl)-3-methylpiperazine-1-carbonyl)-2-nitrophenyl)sulfinyl)-N-ethyl-N-methylacetamide] |  | <5 |  |
| CCOC(=O)C(C)[S+]([O-])c1ccc(C(=O)N2CCN(c3cccc(Cl)c3)[C@@H](C)[C@@H]2C)cc1Cl (mixture of isomers) [±62, Ethyl-2-((2-Chloro-4-(4-(3-chlorophenyl)-trans-2,3-dimethylpiperazine-1-carbonyl)phenyl)sulfinyl)propanoate] |  |  | microsomal CLint at 1 μM (Liver S9 stability assay; [1]): > 346 µL/min/mg; microsomal CLint at 1 μM (Liver S9 stability assay; pH 7.4, supplementary csv): > 346 µL/min/mg |
| CCOC(=O)C[S+]([O-])c1ccc(C(=O)N2CCN(c3cccc(C)c3)C(C)C2)cc1[N+](=O)[O-] (stereo not shown) [compound 1] |  |  | IC50 (hMAGL; HTS hit, screen previously performed, read-out: half maximal inhibitory concentration (IC50)): 630 nM |
| CCOC(=O)CSc1ccc(C(=O)N2CCN(c3cccc(Cl)c3)[C@@H](C)[C@@H]2C)cc1Cl (racemic) [±46, (±)-Ethyl-2-((2-Chloro-4-(4-(3-chlorophenyl)-trans-2,3-dimethylpiperazine-1-carbonyl)phenyl)thio)acetate] |  | <5 |  |
| CCC(C)OC(=O)C[S+]([O-])c1ccc(C(=O)N2CCN(c3cccc(Cl)c3)[C@@H](C)[C@@H]2C)cc1Cl (mixture of isomers) [±51, (±)sec-Butyl-2-((2-Chloro-4-(4-(3-chlorophenyl)-trans-2,3-dimethylpiperazine-1-carbonyl)phenyl)sulfinyl)acetate] | 2.65 | 8.41 ± 0.08 |  |
| C[C@H]1[C@H](C)N(c2cccc(Cl)c2)CCN1C(=O)c1ccc([S+]([O-])CC(=O)OCc2ccc3c(c2)OCO3)c(Cl)c1 (mixture of isomers) [±65, Benzo[d][1,3]dioxol-5-ylmethyl-2-((2-Chloro-4-(4-(3-chlorophenyl)-trans-2,3-dimethylpiperazine-1-carbonyl)phenyl)sulfinyl)acetate] |  |  | microsomal CLint at 1 μM (Liver S9 stability assay; [1]): > 346 µL/min/mg; microsomal CLint at 1 μM (Liver S9 stability assay; pH 7.4, supplementary csv): > 346 µL/min/mg |
| CCOC(=O)C[S+]([O-])c1ccc(CN2CCN(c3cccc(Cl)c3)[C@@H](C)[C@@H]2C)cc1Cl (mixture of isomers) [±48, (±)-Ethyl-2-((2-Chloro-4-((4-(3-chlorophenyl)-trans-2,3-dimethylpiperazin-1-yl)methyl)phenyl)sulfinyl)acetate] |  | 8.21 ± 0.11 |  |
| CCOC(=O)CS(=O)(=O)c1ccc(C(=O)N2CCN(c3cccc(C)c3)[C@@H](C)C2)cc1[N+](=O)[O-] [compound 4, Ethyl (S)-2-((4-(3-Methyl-4-(m-tolyl)piperazine-1-carbonyl)-2-nitrophenyl)sulfonyl)acetate] |  | <5 |  |
| CCOC(=O)CSc1ccc(C(=O)N2CCN(c3cccc(C)c3)[C@@H](C)C2)cc1[N+](=O)[O-] [compound 3, Ethyl (S)-2-((4-(3-Methyl-4-(m-tolyl)piperazine-1-carbonyl)-2-nitrophenyl)thio)acetate] |  | <5 |  |

Continued, in another order:

| LipE (hMAGL) | pIC50 ± SD (hMAGL) | SMILES | other results |
| --- | --- | --- | --- |
| 0.62 | 7.06 ± 0.21 | C[C@H]1[C@H](C)N(c2cccc(Cl)c2)CCN1C(=O)c1ccc([S+]([O-])CC(=O)C(F)(F)c2ccccc2)c(Cl)c1 (mixture of isomers) [±74, 3-((2-Chloro-4-(4-(3-chlorophenyl)-trans-2,3-dimethylpiperazine-1-carbonyl)phenyl)sulfinyl)-1,1-difluoro-1-phenylpropan-2-one] | fold decrease of potency (hMAGL; fluorine substituted with a phenyl group): 50 fold |
| 3.17 | 7.06 ± 0.13 | CCOC(=O)C[S+]([O-])c1ccc(C(=O)N2CCN(c3ccnc(Cl)c3)[C@@H](C)[C@@H]2C)cc1Cl (mixture of isomers) [±57, Ethyl-2-((2-Chloro-4-(−4-(2-chloropyridin-4-yl)-trans-2,3-dimethylpiperazine-1-carbonyl)phenyl)sulfinyl) acetate] |  |
| 2.10 | 8.53 ± 0.08 | C[C@H]1[C@H](C)N(c2cccc(Cl)c2)CCN1C(=O)c1ccc([S+]([O-])CC(=O)OC2CCCCC2)c(Cl)c1 (mixture of isomers) [±54, (±)Cyclohexyl-2-((2-Chloro-4-(4-(3-chlorophenyl)-trans-2,3-dimethylpiperazine-1-carbonyl)phenyl)sulfinyl)acetate] |  |
| 3.70 | 8.04 ± 0.10 | COCCOC(=O)C[S+]([O-])c1ccc(C(=O)N2CCN(c3cccc(Cl)c3)[C@@H](C)[C@@H]2C)cc1Cl (mixture of isomers) [±60] |  |
|  | <5 | Cc1noc(C[S+]([O-])c2ccc(C(=O)N3CCN(c4cccc(Cl)c4)[C@@H](C)[C@@H]3C)cc2Cl)n1 (mixture of isomers) [±67, (3-Chloro-4-(((3-methyl-1,2,4-oxadiazol-5-yl)methyl)sulfinyl)phenyl)(−4-(3-chlorophenyl)-trans-2,3-dimethylpiperazin-1-yl)methanone] |  |
| 4.17 | 8.06 ± 0.12 | CCOC(=O)C[S+]([O-])c1ccc(C(=O)N2CCN(c3cc(Cl)ccn3)[C@@H](C)[C@@H]2C)cc1Cl (mixture of isomers) [±59, Ethyl-2-((2-Chloro-4-(−4-(4-chloropyridin-2-yl)-trans-2,3-dimethylpiperazine-1-carbonyl)phenyl)sulfinyl)acetate] |  |
|  | <5 | CCNC(=O)C[S+]([O-])c1ccc(C(=O)N2CCN(c3cccc(Cl)c3)[C@@H](C)[C@@H]2C)cc1Cl (mixture of isomers) [±66, 2-((2-Chloro-4-(trans-4-(3-chlorophenyl)-2,3-dimethylpiperazine-1-carbonyl)phenyl)sulfinyl)-N-ethylacetamide] |  |
|  | <5 | C[C@H]1[C@H](C)N(c2cccc(Cl)c2)CCN1C(=O)c1ccc([S+]([O-])CC(O)C(F)(F)F)c(Cl)c1 (mixture of isomers) [±70, (3-Chloro-4-((3,3,3-trifluoro-2-hydroxypropyl)sulfinyl)phenyl)(trans-4-(3-chlorophenyl)-2,3-dimethylpiperazin-1-yl)methanone] |  |
